According to the supplement of paper PMC5844555:

What was measured:
Assay in all cases: 3' UTR reporter interaction score (median-centred robust z-score of log2 firefly/Renilla activity); higher = less repression of the 3' UTR reporter
Conditions in all cases: HEK293T; 48 h
ZEB2 = tested on: ZEB2
Outline: (§1)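 Firefly and Renilla luciferase activities were read 48 h post-transfection in HEK293T cells (10,000/well, 96-well plates). The cells had received 100 ng firefly luc2P reporter bearing the gene's 3' UTR, 20 ng Renilla pRL-TK control and 2.5 pmol miRNA mimic via DharmaFECT Duo. The interaction score, where more negative means interaction, is a per-plate robust z-score (median, median absolute deviation) of the log firefly/Renilla ratio, median-centred per miRNA and averaged over at least two independent screens.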

PHOX2B = tested on: PHOX2B
Outline: as §1

PHF6 = tested on: PHF6
Outline: as §1

BRCA2 = tested on: BRCA2
Outline: as §1

EZH2 = tested on: EZH2
Outline: as §1

NOTCH1 = tested on: NOTCH1
Outline: as §1

MYB = tested on: MYB
Outline: as §1

FBXW7 = tested on: FBXW7
Outline: as §1

TP53 = tested on: TP53
Outline: as §1

RB1 = tested on: RB1
Outline: as §1

MYC = tested on: MYC
Outline: as §1

MYCN = tested on: MYCN
Outline: as §1

MYT1L = tested on: MYT1L
Outline: as §1

HRAS = tested on: HRAS
Outline: as §1

Row | Sequence | 3' UTR reporter interaction score (ZEB2) | 3' UTR reporter interaction score (PHOX2B) | 3' UTR reporter interaction score (PHF6) | 3' UTR reporter interaction score (BRCA2) | 3' UTR reporter interaction score (EZH2) | 3' UTR reporter interaction score (NOTCH1) | 3' UTR reporter interaction score (MYB) | 3' UTR reporter interaction score (FBXW7) | 3' UTR reporter interaction score (TP53) | 3' UTR reporter interaction score (RB1) | 3' UTR reporter interaction score (MYC) | 3' UTR reporter interaction score (MYCN) | 3' UTR reporter interaction score (MYT1L) | 3' UTR reporter interaction score (HRAS)
1 | CUGCAAAGGGAAGCCCUUUCU | -4.11 | -0.887 | -2.67 | -0.0732 | -3.8 | -1.22 | 1.16 | -3.15 | 0.104 | 1.27 | 1.15 | 1.29 | 0.529 | 0.112
2 | CUGGACUUAGGGUCAGAAGGCC | 2.31 | 1.18 | 0.77 | -1.05 | -0.857 | -1.28 | 1.31 | -0.885 | -0.836 | 1.37 | -0.781 | 0.447 | 0.968 | 0.067
3 | CUGGACUUGGAGUCAGAAGGCC | 1.96 | 0.64 | 0.484 | -0.913 | -1.01 | -1.42 | 1.36 | -1.21 | -0.688 | -0.493 | -0.585 | 0.91 | 1.12 | 0.243
4 | CUGGAUGGCUCCUCCAUGUCU | 0.281 | 1.08 | 1.87 | -1.72 | -1.36 | 0.182 | 0.532 | 0.945 | 0.127 | -2.12 | -0.501 | 1.88 | -0.148 | -0.334
5 | CUGGCCCUCUCUGCCCUUCCGU | 0.72 | -0.839 | -2.64 | 0.17 | 0.421 | -0.752 | 0.857 | -0.17 | -0.27 | -0.329 | 1.14 | 1.01 | 0.19 | 1.31
6 | CUGGGAUCUCCGGGGUCUUGGUU | -0.251 | 0.484 | -0.552 | -0.371 | -0.155 | -0.177 | -0.958 | 0.0113 | -1.29 | 2.57 | 0.773 | 0.56 | -0.147 | -0.593
7 | CUGUGCGUGUGACAGCGGCUGA | 2.18 | -2.14 | 0.722 | -0.102 | -0.315 | 0.0936 | 1.02 | 0.121 | 0.618 | 1.29 | -0.0999 | 0.24 | -2.16 | -0.943
8 | CUUCUUGUGCUCUAGGAUUGU | 0.0232 | -1.49 | -0.418 | -1.63 | 0.0594 | -0.719 | 0.218 | -1.11 | -0.0486 | 0.605 | 0.759 | 0.82 | -0.427 | 0.138
9 | CUUGGUUCAGGGAGGGUCCCCA | 1.64 | 0.231 | 0.112 | -0.342 | 0.379 | -0.824 | 0.238 | -2.49 | -0.22 | -0.223 | -0.0193 | 0.421 | 0.48 | -0.543
10 | CUUUCAGUCGGAUGUUUACAGC | -0.248 | -0.851 | -0.685 | 0.0637 | -0.714 | 0.359 | 0.713 | -0.0926 | 0.358 | 0.295 | -0.326 | 0 | -0.118 | 0.423
11 | CUUUCAGUCGGAUGUUUGCAGC | 0.565 | 0.68 | -0.502 | -0.362 | -0.356 | 0.454 | 0.557 | -0.137 | -0.309 | -0.473 | 0.164 | -0.166 | 0.0662 | 0.271
12 | CUUUUUGCGGUCUGGGCUUGC | -2.61 | -0.0143 | -1.29 | -0.285 | 0.547 | -0.155 | 0.803 | -2.11 | -0.0822 | -0.184 | 0.829 | 0.522 | 1.18 | 0.493
13 | GAAAACAGCAAUUACCUUUGCA | 0.263 | 0.0564 | -0.427 | 0.212 | 0.37 | -1.34 | -1.17 | 0.0135 | -0.0426 | 0.347 | -0.413 | 0.734 | -0.261 | -0.7
14 | GAACGCCUGUUCUUGCCAGGUGG | 0.419 | -0.674 | -1.24 | 1.57 | 1.05 | 0.125 | 0.0781 | -1.79 | -0.416 | 0.00732 | 0.431 | -0.325 | -0.992 | 0.54
15 | GAAGGCGCUUCCCUUUAGAGC | 0.676 | 1.35 | 0.189 | 0.0383 | -1.42 | -0.268 | 0.182 | 0.412 | -0.514 | 0.388 | -0.899 | 0.218 | 0.364 | -1.63
16 | GAAGGCGCUUCCCUUUGGAGU | 1.47 | 2.09 | 0.395 | 0.864 | -1.48 | -0.115 | -0.216 | 0.348 | -0.237 | 0.389 | -1.08 | -0.406 | 0.212 | -1.8
17 | GAAGUGCUUCGAUUUUGGGGUGU | 0.378 | 0.548 | 0.808 | 0.244 | -0.43 | 0.231 | 0.012 | -0.253 | -1.53 | 2.22 | 0.42 | 0.643 | -0.424 | 0.659
18 | GAAGUGUGCCGUGGUGUGUCU | -0.231 | 1.74 | -0.942 | -0.0229 | -0.113 | -0.516 | -0.373 | 1.69 | 0.832 | 0.538 | -0.0876 | -0.199 | -1.67 | -0.384
19 | GAAGUUGUUCGUGGUGGAUUCG | 0.478 | -0.358 | -0.491 | 0.514 | -2.16 | 0.409 | 0.448 | -1.37 | -1.17 | 1.05 | 0.185 | -0.332 | -1.32 | 0.113
